In the Kinase Knowledgebase extract (Sharma et al. 2016) one finds IC50 data, which are given here for 46 compounds.

Bounds are passed on as bounds.

The target of experiment [1] is EGFR (human), P00533 [WT].
The target in experiment [2] is EGFR (Human), P00533 [T790M/L858R].
Sequence of EGFR (Human), P00533 [T790M/L858R] (P00533 whole entry T790M/L858R, looked up): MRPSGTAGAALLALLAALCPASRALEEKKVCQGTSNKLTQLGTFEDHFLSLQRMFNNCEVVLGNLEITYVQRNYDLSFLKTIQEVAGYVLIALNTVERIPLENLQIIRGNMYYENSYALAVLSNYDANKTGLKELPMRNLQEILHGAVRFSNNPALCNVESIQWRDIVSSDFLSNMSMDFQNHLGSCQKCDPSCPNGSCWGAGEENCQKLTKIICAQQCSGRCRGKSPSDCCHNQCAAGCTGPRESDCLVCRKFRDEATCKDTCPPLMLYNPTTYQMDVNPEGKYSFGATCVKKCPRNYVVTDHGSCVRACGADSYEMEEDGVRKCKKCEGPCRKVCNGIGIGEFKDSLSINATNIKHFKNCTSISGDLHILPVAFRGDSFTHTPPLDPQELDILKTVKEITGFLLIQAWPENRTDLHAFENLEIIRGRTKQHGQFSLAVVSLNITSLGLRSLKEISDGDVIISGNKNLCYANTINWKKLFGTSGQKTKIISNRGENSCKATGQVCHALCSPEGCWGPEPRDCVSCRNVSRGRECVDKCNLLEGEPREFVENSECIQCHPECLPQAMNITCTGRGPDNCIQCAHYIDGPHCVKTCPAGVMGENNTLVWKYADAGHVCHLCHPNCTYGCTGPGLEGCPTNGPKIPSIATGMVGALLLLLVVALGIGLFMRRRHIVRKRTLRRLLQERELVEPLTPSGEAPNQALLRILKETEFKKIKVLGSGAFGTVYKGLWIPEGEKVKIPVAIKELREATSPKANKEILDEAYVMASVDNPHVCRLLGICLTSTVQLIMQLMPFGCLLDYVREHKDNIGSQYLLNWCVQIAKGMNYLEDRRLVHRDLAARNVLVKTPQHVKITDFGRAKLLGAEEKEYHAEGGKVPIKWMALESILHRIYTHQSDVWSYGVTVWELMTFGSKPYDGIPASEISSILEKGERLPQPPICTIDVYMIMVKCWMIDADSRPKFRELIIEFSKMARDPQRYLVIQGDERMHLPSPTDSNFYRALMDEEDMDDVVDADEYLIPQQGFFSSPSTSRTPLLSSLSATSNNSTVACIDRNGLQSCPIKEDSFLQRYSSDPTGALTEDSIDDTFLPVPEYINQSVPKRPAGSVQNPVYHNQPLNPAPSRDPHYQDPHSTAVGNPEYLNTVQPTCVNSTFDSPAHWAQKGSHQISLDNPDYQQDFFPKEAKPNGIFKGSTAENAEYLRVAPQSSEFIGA

Sequence of EGFR (human), P00533 [WT] (P00533 whole entry, looked up): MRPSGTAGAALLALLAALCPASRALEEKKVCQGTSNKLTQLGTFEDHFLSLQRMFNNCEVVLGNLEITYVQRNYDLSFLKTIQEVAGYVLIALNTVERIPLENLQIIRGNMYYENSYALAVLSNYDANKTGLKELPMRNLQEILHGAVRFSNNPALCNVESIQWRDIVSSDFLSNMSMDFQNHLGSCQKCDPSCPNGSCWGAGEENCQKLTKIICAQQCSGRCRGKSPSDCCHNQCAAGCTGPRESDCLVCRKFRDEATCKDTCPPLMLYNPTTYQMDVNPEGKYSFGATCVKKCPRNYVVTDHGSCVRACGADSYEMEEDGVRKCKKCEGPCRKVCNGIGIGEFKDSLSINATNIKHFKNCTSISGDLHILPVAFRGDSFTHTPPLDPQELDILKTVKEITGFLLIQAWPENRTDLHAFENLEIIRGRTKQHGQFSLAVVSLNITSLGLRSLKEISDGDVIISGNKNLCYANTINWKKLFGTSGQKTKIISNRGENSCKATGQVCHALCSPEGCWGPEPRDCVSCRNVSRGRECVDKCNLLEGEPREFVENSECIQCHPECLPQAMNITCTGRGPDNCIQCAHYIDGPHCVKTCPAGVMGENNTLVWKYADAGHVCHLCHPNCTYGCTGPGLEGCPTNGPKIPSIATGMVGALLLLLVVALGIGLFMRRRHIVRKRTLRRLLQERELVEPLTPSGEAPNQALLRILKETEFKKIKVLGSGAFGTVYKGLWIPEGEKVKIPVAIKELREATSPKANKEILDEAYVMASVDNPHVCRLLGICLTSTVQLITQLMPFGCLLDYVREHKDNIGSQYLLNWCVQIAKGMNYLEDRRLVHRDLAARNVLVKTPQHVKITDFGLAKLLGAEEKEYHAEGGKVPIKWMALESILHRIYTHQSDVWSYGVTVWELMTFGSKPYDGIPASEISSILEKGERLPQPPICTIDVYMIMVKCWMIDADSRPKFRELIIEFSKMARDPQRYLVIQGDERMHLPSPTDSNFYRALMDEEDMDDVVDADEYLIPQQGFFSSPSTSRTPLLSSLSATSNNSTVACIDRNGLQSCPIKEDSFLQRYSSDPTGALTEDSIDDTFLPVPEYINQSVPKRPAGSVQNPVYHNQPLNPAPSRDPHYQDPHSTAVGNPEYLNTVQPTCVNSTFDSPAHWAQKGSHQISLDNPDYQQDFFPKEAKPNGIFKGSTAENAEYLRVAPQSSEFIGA

By IC50 is commonly meant the concentration that gives 50% inhibition. The low end stands for greater potency, the high end for weaker potency. In experiment [1], `C=CC(=O)Nc1cccc(Nc2cc(Nc3ccc(Oc4ccccc4)cc3)ncn2)c1` had an IC50 of at most 10 nM.
Compound `C=CC(=O)Nc1cccc(Nc2cc(N3CCc4ccccc43)ncn2)c1` returned an IC50 in experiment [1] of at most 10 nM.
As to `O=C(C=CCN1CCCC1)Nc1cccc(Nc2cc(Nc3ccc(F)c(Cl)c3)ncn2)c1`, the IC50 in experiment [1] and in experiment [2] was at most 10 nM each time.
With `C=CC(=O)Nc1cccc(Nc2cc(Nc3cccc(Oc4ccccc4)c3)ncn2)c1`, in experiment [1], the IC50 was at most 10 nM.
Take `C=CC(=O)Nc1ccc(Nc2cc(Nc3cccc(Br)c3)ncn2)cc1`: in experiment [1], the IC50 is at most 10 nM.
Take `C=CC(=O)Nc1cccc(Nc2cc(Nc3cccc(C)c3)ncn2)c1`: the IC50 in experiment [1] is at most 10 nM.
In turn, `Cc1cccc(Nc2cc(Nc3cccc(NC(=O)/C=C/CN(C)C)c3)ncn2)c1` showed an IC50 in experiment [1] of at most 10 nM.
The same measure, in the same setting: under `C=CC(=O)Nc1cccc(Nc2cc(Oc3ccc(OC)cc3)ncn2)n1` stands at most 10 nM.
On to `C=CC(=O)Nc1cccc(Nc2cc(Oc3cccc(C)c3)ncn2)n1`, for which, in experiment [1], the half-maximal inhibitory concentration (IC50) is at most 10 nM.
As to `C=CC(=O)Nc1cccc(Nc2cc(Nc3ccccc3)ncn2)c1`, in experiment [1], the half-maximal inhibitory concentration (IC50) was at most 10 nM.
Same read-out and setting: under `CN(C)C/C=C/C(=O)Nc1cccc(Nc2cc(Nc3ccc(F)c(Cl)c3)ncn2)c1` stands at most 10 nM; under `C=CC(=O)Nc1cccc(Nc2cc(Nc3cccc(Br)c3)ncn2)c1`, at most 10 nM.
The same measure, in the same setting: in the case of `C=CS(=O)(=O)Nc1cccc(Nc2cc(Nc3cccc(C)c3)ncn2)c1` it was at most 10 nM.
`C=CS(=O)(=O)Nc1cccc(Nc2cc(Nc3ccc(F)c(Cl)c3)ncn2)c1` showed an IC50 in experiment [1] of at most 10 nM.
On to `C=CS(=O)(=O)Nc1cccc(Nc2cc(Oc3cccc(C(F)(F)F)c3)ncn2)c1`, for which the IC50 in experiment [1] is at most 10 nM.
In experiment [1], `CN(C)C/C=C/C(=O)N(C)c1cccc(Nc2cc(Nc3ccc(Oc4ccccc4)cc3)ncn2)n1` yielded an IC50 of at most 10 nM.
The compound `C=CC(=O)Nc1cccc(Nc2cc(Nc3ccc(F)c(Cl)c3)ncn2)c1` yielded an IC50 in experiment [1] of at most 10 nM.
`CC#CC(=O)c1cccc(Nc2cc(Nc3ccc(Oc4ccccc4)cc3)ncn2)c1` registered a concentration for half-maximal inhibition (IC50) in experiment [1] of at most 10 nM.
As for `C/C=C/C(=O)Nc1cccc(Nc2cc(Nc3cccc(Br)c3)ncn2)c1`, the IC50 in experiment [1] was at most 10 nM.
The compound `Cc1cccc(Oc2cc(Nc3cccc(NC(=O)C=CCN(C)C)n3)ncn2)c1` yielded an IC50 in experiment [1] of at most 10 nM.
On to `C=CC(=O)Nc1cccc(Nc2cc(Nc3ccccc3)ncn2)n1`, for which, in experiment [1], the IC50 was at most 10 nM.
Same read-out and setting: in the case of `CN(C)C/C=C/C(=O)Nc1cccc(Nc2cc(Oc3ccc(Oc4ccccc4)cc3)ncn2)n1` it was at most 10 nM; in that of `CN(C)C/C=C/C(=O)Nc1cccc(Nc2cc(Nc3ccc(OCc4cccc(F)c4)c(Cl)c3)ncn2)c1`, at most 10 nM.
The same measure, in the same setting: under `CN(C)C/C=C/C(=O)Nc1cccc(Nc2cc(Nc3ccccc3)ncn2)n1` stands at most 10 nM.
Compound `C=CC(=O)N(C)c1cccc(Nc2cc(Nc3ccc(Oc4ccccc4)cc3)ncn2)n1` had an IC50 in experiment [1] of at most 10 nM.
Same read-out and setting: under `C=CC(=O)N1CCC(Nc2cc(Nc3ccc(F)c(Cl)c3)ncn2)C1` (stereo not drawn) stands at most 10 nM.
The compound `C=CC(=O)Nc1cccc(Nc2cc(Nc3ccc(OCc4ccccn4)c(Cl)c3)ncn2)c1` showed an IC50 in experiment [1] of at most 10 nM.
Compound `C=CC(=O)Nc1cccc(Nc2cc(Oc3cccc(C(F)(F)F)c3)ncn2)c1` returned an IC50 in experiment [1] of at most 10 nM.
In the case of `CC=CC(=O)c1cccc(Nc2cc(Nc3ccc(Oc4ccccc4)cc3)ncn2)c1`, the IC50 in experiment [1] was at most 10 nM.
`C=CC(=O)N1CCCC(Nc2cc(Nc3ccc(F)c(Cl)c3)ncn2)C1` (stereo not drawn) registered an IC50 in experiment [1] of at most 10 nM.
The compound `C=CS(=O)(=O)Nc1cccc(Nc2cc(Nc3ccc(OCc4cccc(F)c4)c(Cl)c3)ncn2)c1` displayed an IC50 in experiment [1] of at most 10 nM.
Consider `C=CC(=O)Nc1cccc(Nc2cc(Nc3ccc(Oc4ccccc4)cc3)ncn2)n1`, for which the IC50 in experiment [1] is at most 10 nM.
As to `C=CC(=O)Nc1cccc(Nc2cc(Oc3cccc(OC)c3)ncn2)n1`, the IC50 in experiment [1] is at most 10 nM.
For the compound `C=CC(=O)Nc1cccc(Nc2cc(N(C)c3ccccc3)ncn2)c1`, the IC50 in experiment [1] is at most 10 nM.
In turn, `O=C(Nc1cccc(Nc2cc(Nc3ccc(F)c(Cl)c3)ncn2)c1)C1(C(F)(F)F)CC1` had an IC50 in experiment [1] of at most 10 nM.
Regarding `O=C(CCl)Nc1cccc(Nc2cc(Nc3ccc(F)c(Cl)c3)ncn2)c1`, the IC50 in experiment [1] was at most 10 nM.
In experiment [1], `N#CC1(C(=O)Nc2cccc(Nc3cc(Nc4ccc(F)c(Cl)c4)ncn3)c2)CC1` came in with an IC50 of at most 10 nM.
The compound `CN(C)C/C=C/C(=O)Nc1cccc(Nc2cc(Oc3ccc(F)c(Cl)c3)ncn2)c1` showed an IC50 in experiment [1] of at most 10 nM.
For `CN(C)C/C=C/C(=O)Nc1cccc(Nc2cc(Nc3ccc(F)c(Cl)c3)ncn2)n1`, the IC50 in experiment [1] and in experiment [2] was at most 10 nM in each case.
`Cc1ccc(NC(=O)/C=C/CN(C)C)cc1Nc1cc(Nc2ccc(F)c(Cl)c2)ncn1` registered an IC50 in experiment [1] of at most 10 nM.
Same read-out and setting: under `CN(C)C/C=C/C(=O)Nc1cccc(Nc2cc(Nc3ccc(OCc4ccccn4)c(Cl)c3)ncn2)c1` stands at most 10 nM.
On the same count and under the same terms, under `C=CC(=O)Nc1cccc(Nc2cc(Nc3ccc(Br)cc3F)ncn2)c1` stands at most 10 nM; under `C=CC(=O)Nc1cccc(Nc2cc(Oc3ccc(Oc4ccccc4)cc3)ncn2)n1`, at most 10 nM; under `CC(Cl)C(=O)Nc1cccc(Nc2cc(Nc3ccc(F)c(Cl)c3)ncn2)c1` (stereo not drawn), at most 10 nM.
Regarding `C#Cc1cccc(Nc2cc(Nc3cccc(NC(=O)C=C)c3)ncn2)c1`, the IC50 in experiment [1] is at most 10 nM.
The compound `COc1ccc(NC(=O)/C=C/CN(C)C)cc1Nc1cc(Nc2ccc(F)c(Cl)c2)ncn1` showed an IC50 in experiment [1] of at most 10 nM.
